Laboratory results from patent publication US8501782B2, “Piperidinyl derivatives as modulators of chemokine receptor activity” (Bristol-Myers Squibb Company, priority 2007, dated 2013).

Target: T1, CCR1 (Homo sapiens, UniProt P32246)
T1 construct: THP-1 monocytic leukemia cells are combined with 100 μg of LS WGA PS beads; endogenous in cells; host or cells: THP-1 human monocytic leukemia cells
T1 sequence (P32246 1-355): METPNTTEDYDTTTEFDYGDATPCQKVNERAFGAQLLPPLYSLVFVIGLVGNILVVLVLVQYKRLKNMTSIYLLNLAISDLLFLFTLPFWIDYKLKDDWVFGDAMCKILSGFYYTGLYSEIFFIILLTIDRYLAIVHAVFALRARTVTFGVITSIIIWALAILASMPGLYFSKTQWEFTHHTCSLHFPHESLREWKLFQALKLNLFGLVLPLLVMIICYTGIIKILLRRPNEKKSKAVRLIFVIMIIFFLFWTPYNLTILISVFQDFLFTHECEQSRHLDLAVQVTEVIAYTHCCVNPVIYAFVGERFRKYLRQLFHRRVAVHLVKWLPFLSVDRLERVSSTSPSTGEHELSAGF
Assay: CCR1 ligand binding scintillation proximity assay (SPA): antagonism of MIP-1α binding to human THP-1 cells
Settings: THP-1 monocytic leukemia cells, 0.1 nM [125I]-MIP-1α, 12 h at room temperature
Method: Antagonism of MIP-1α Binding to Human THP-1 Cells
CCR1 ligand binding scintillation proximity assay (SPA) description:
For radioligand competition studies, a final concentration of 1×10^5 THP-1 monocytic leukemia cells are combined with 100 μg of LS WGA PS beads (Amersham, Cat.#: RPNQ 0260) in 40 μl of assay buffer (RPMI 1640 without phenol red, 50 mM HEPES, 5 mM MgCl2, 1 mM CaCl2, 0.1% BSA). The THP-1 cell/bead mixture is added to each well of a 384-well assay plate (PerkinElmer, Cat. #:6007899) containing test compound in 3-fold serial dilution, with final concentrations ranging from 8 μM to […]. A final concentration of 0.1 nM [^125I]-MIP-1α (PerkinElmer, Cat. #NEX298) in 20 μl assay buffer is added to the reaction. Sealed assay plates are incubated at room temperature for 12 h then analyzed by LEADseeker™.
The competition data of the test compound over a range of concentrations is plotted as percentage inhibition of radioligand specific bound in the absence of test compound (percent of total signal). After correcting for non-specific binding, IC50 values are determined. The IC50 value is defined as the concentration of test compound needed to reduce [^125I]-MIP-1α specific binding by 50% and is calculated using the four parameter logistic equation to fit the normalized data. The Ki values are determined by application of the Cheng-Prusoff equation to the IC50 values, where Ki=IC50/(1+ligand concentration/Kd) The Kd of [^125I]-MIP-1α in THP-1 cells is 0.1 nM. Each experiment is run in duplicate.

SMILES	IC50 [nM]
CCOC(=O)c1cc(C2(O)CCN(C(=O)CC(C)(C)NC(=O)c3ccccc3)CC2(C)C)ccc1Cl (stereo not drawn) [Example 78]	991
CC(NC(=O)c1ccccc1)C(C)C(=O)N1CC[C@](O)(c2ccc(Cl)cc2)C(C)(C)C1 (single isomer, unassigned) [Example 72a]	1190
CC(CNC(=O)C1CCCC1)C(=O)N1CC[C@](O)(c2ccc(Cl)cc2)C(C)(C)C1 (stereo partly drawn) [Example 21]	42
Cc1cc(C)c(C(=O)NC(C)(C)CC(=O)N2CC[C@](O)(c3ccc(Cl)cc3)C(C)(C)C2)cn1 [Example 40]	1.5
CC(C)[C@@H](CNC(=O)Cc1ccccc1)C(=O)N1CC[C@](O)(c2ccc(Cl)cc2)C(C)(C)C1 [Example 89]	809
CC(C)(CC(=O)N1CC[C@](O)(c2ccc(Cl)cc2)C(C)(C)C1)NC(=O)c1cccc(-n2cnnn2)c1 [Example 50]	2.2
CC(C)(CC(=O)N1CCC(O)(c2ccc(C#N)cc2)C(C)(C)C1)NC(=O)c1ccccc1 (stereo not drawn) [Example 60]	45.3
CC1(C)CN(C(=O)CCNC(=O)c2ccccc2)CC[C@]1(O)c1ccc(Cl)cc1 [Example 27]	41.6
C[C@H](CC(=O)N1CC[C@](O)(c2ccc(Cl)cc2)C(C)(C)C1)NC(=O)[C@@H]1CC[C@@H](NC(=O)OC(C)(C)C)C1 [Example 28]	46.7
CC1(C)CN(C(=O)CC2(NC(=O)c3ccccc3)CCOCC2)CC[C@]1(O)c1ccc(Cl)cc1 [Example 15, (S)—N-(4-(2-(4-(4-Chlorophenyl)-4-hydroxy-3,3-dimethylpiperidin-1-yl)-2-oxoethyl)tetrahydro-2H-pyran-4-yl)benzamide]	1180
C[C@H](NC(=O)NC(C)(C)CC(=O)N1CC[C@](O)(c2ccc(Cl)cc2)C(C)(C)C1)C(C)(C)O [Example 63, 1-(4-((S)-4-(4-Chlorophenyl)-4-hydroxy-3,3-dimethylpiperidin-1-yl)-2-methyl-4-oxobutan-2-yl)-3-((S)-3-hydroxy-3-methylbutan-2-yl)urea]	1.9
CC(C)(CC(=O)N1CC[C@](O)(c2ccc(Cl)cc2)C(C)(C)C1)NC(=O)C1CCCC1 [Example 35]	1.7
CC(C)(CC(=O)N1CC[C@](O)(c2ccc(Cl)cc2)C(C)(C)C1)NC(=O)c1cccc(C(N)=O)c1 [Example 42]	1.8
CC(=O)N[C@@H]1CC[C@@H](C(=O)N[C@H](C)CC(=O)N2CC[C@](O)(c3ccc(Cl)cc3)C(C)(C)C2)C1 [Example 11, (1R,3R)-3-Acetamido-N—((R)-4-((S)-4-(4-chlorophenyl)-4-hydroxy-3,3-dimethylpiperidin-1-yl)-4-oxobutan-2-yl)cyclopentanecarboxamide]	43.9
CC(C)(CC(=O)N1CCC(O)(c2ncc(Cl)cc2Cl)C(C)(C)C1)NC(=O)c1ccccc1 (stereo not drawn) [Example 83]	788
